Data taken from patent US9610277B2, “Formula comprising a hypolipidemic agent” (Cadila Healthcare Limited, priority 2013, dated 2017).
“Also recorded” adds a separate entry of the source.

Legend:
Assay type in all cases: physicochemical
[1] = Sulfoxide impurity level over six months
Text: Further, one of the impurity (sulfoxide) which was being generated in API increases from 0.17% to 0.76% over a period of 6 months. […] Therefore stabilization of compositions containing compounds of formula (I) can be made by maintaining the microenvironmental pH of composition above 7 by using suitable alkalinizers. Use of a suitable antioxidant(s) and chelating agent(s) further stabilizes the formulation.

[2] = pH degradation of API in standard pH buffers (sulfoxide impurity at 0.3 RRT); conditions: different standard pH buffers, after 24 hours
Procedure: FIG. 1: Percentage of sulfoxide impurity level (0.3 RRT) at different pH after 24 hours.
When the pH was modulated by addition of alkalinizer(s) then sulfoxide impurity level in API is restricted.
About 1% w/v aqueous dispersion of tablets was used for pH measurement. pH degradation can be seen with API when kept in different standard pH buffers.

[3] = Moisture absorption of API at 40° C./75% RH (water by KF)
Text: (§1) Therefore the inventors of the present invention have tried to develop a stable formulation of API such that the API is protected and cannot absorb moisture.

[4] = Stability of API at 40° C./75% RH (percent purity)
Text: as §1

sulfoxide impurity level ([1]; after 6 months): 0.76%
sulfoxide impurity level ([1]; start of the six month period): 0.17%
Water By KF ([3]; 1 Month): 1.17%
Water By KF ([3]; 2 Month): 2.32%
Water By KF ([3]; 3 Month): 2.57%
Water By KF ([3]; Initial): 0.62%
Percent Purity ([4]; 1 Month): 98.10%
Percent Purity ([4]; 2 Month): 97.93%
Percent Purity ([4]; 3 Month): 97.17%
Percent Purity ([4]; Initial): 98.48%
Structure (SMILES): CCO[C@@H](Cc1ccc(OCCn2c(C)ccc2-c2ccc(SC)cc2)cc1)C(=O)O [API, Saroglitazar Magnesium]
Percentage individual impurity at 0.3 RRT (Sulphoxide impurity) [2]: restricted; also recorded: decreases as the solution of pH increases above pH 7
